Tested on: angiotensin I-converting enzyme (ACE)
Experiment: ACE inhibitory activity assay (fluorometric ACE activity assay kit)
Assay type: biochemical
Settings: peptide sample 1 mg/mL; for ACE inhibitory activity, mean±SD / inhibition: 37 °C, fluorescence ex 320/em 405 nm, n = 3, mean ± SD
Description: The ACE inhibitory activity assay was performed following the method outlined by Batista et al., with slight modifications, using a fluorometric angiotensin I-converting enzyme (ACE) activity assay kit from Sigma-Aldrich (catalog number CS0002), Burlington, Massachusetts, USA. In summary, 10 µ L of the sample (1 mg/mL for the peptide sample and 50 µg/mL for ramipril) was combined with 40 µ L of the ACE solution (CS0002B) in 96-well flat-bottom black plates at 37 °C for 5 min. Next, 50 µ L of the substrate solution (CS0002C) was added to this mixture to initiate the reaction. A fluorescence multiwell plate reader was used to monitor the changes in fluorescence. The sample’s fluorescence was measured every min for 5 min, with excitation at 320 nm and emission at 405 nm. All reagents, except the test sample, were prepared to assess the ACE positive control activity. A kit standard solution (CS0002D) was diluted with assay buffer (CS0002A) to create different concentrations (nmol) of the standard solution, allowing generation of a standard curve. The slope of the standard curve (RFU/nmol) and the slope of the sample kinetic curve were utilized to calculate the ACE activity using the following equation (3):
ACEactivitynmol/min=Slopesample/Slopestandard×DF (3)
Where Slopesample refers to the slope of the blank-subtracted sample curve (RFU/min), Slopestandard refers to the slope of the blank-subtracted standard curve (RFU/nmol), DF is the dilution factor, and 0.1 nmol/min is equivalent to […].
In this study, the results of ACE inhibitory activity are expressed as percentages. The ACE inhibitory activity (%) was calculated using the following equation (4):
ACEinhibitoryactivity%=ACEPC–ACES/ACEPC×100 (4)
Where ACEPC represents the ACE activity of the positive control, and ACES denotes the ACE activity of the sample.

Sequence	ACE inhibitory activity, mean±SD [%]	ACE inhibitory activity (replicate 1) [%]	ACE inhibitory activity (replicate 2) [%]	ACE inhibitory activity (replicate 3) [%]	ACE inhibitory activity, mean±SD (SD)	inhibition (SD) [%]
MVVACVLPEA [P16, synthesized peptide identified from jellyfish fraction PUR20C]	91.69	92.27	89.69	93.12		
PFTMYFLL [P14, synthesized peptide identified from jellyfish fraction PUR20C]		81.67	81.67	82.25	81.87±0.33^B %	
HSVLTASYRN [P5, synthesized peptide identified from jellyfish fraction PUR20C]		24.71	31.01	31.58	29.10±3.81^F %	
KFNEVVYFL [P15, synthesized peptide identified from jellyfish fraction PUR20C]		57.63	51.33	57.34	55.43±3.55^C %	
LNIPKPKLNLL [P11, synthesized peptide identified from jellyfish fraction PUR20C]		19.27	25.00	24.42	22.90±3.15^G %	
EQIYPMGEGDEL [P4, synthesized peptide identified from jellyfish fraction PUR20C]		5.53	4.10	5.82	5.15±0.92^J %	
DAENKENVEE [P18, synthesized peptide identified from jellyfish fraction PUR20C]		20.13	23.85	24.42	22.80±2.33^G %	
LGAEGRSP [P13, synthesized peptide identified from jellyfish fraction PUR20C]		21.56	18.41	21.56	20.51±1.81^G %	
NQKAMQELNE [P1, synthesized peptide identified from jellyfish fraction PUR20C]		6.67	6.67	6.10		6.48 ± 0.33
PMETDDQPNN [P17, synthesized peptide identified from jellyfish fraction PUR20C]		9.82	13.54	13.83	12.40±2.23^H %	
RARVVPMY [P6, synthesized peptide identified from jellyfish fraction PUR20C]		33.87	33.01	34.16	33.68±0.59^E %	
RPLAKIIP [P8, synthesized peptide identified from jellyfish fraction PUR20C]		32.44	26.14	31.29	29.96±3.35^F %	
EIDKLPPESRP [P7, synthesized peptide identified from jellyfish fraction PUR20C]		8.11	8.96	8.96		8.68 ± 0.49
GKNCGETVWE [P9, synthesized peptide identified from jellyfish fraction PUR20C]		5.53	8.68	8.39		7.53 ± 1.74
TDSPAPSETTD [P2, synthesized peptide identified from jellyfish fraction PUR20C]		0.66	1.24	0.66	0.85±0.33^K %	

Source: PMC11813147, “Bioactivity assessment of peptides derived from salted jellyfish (Rhopilema hispidum) byproducts” (PLOS ONE, 2025)
